Consider 40 compounds from US11485736B2 (KSQ Therapeutics, Inc., priority 2018, dated 2022).

Molecules are shown by their SMILES. Where two headings read alike, the source gives them in different places.

The IC50 is the concentration needed to halve the response being measured. Read a high IC50 as a need for much substance. A word on the solubility: it is how much of the substance goes into solution per volume.

Data set [1] deals with USP1/UAF1 (Homo sapiens (Human), UniProt O94782). The experiment in a line: Deubiquitination assay for USP1/UAF1 activity (ubiquitin-rhodamine 110). Type of data set: biochemical. The settings on record: 0.05 nM USP1/UAF1, 150 nM ubiquitin-rhodamine. As to the method:
Certain Compounds of the Disclosure were assessed for USP1/UAF1 activity in a Ubiquitin Rhodamine assay modified from those described previously.
Deubiquitinase activity was measured using ubiquitin-rhodamine 110 as a substrate. Cleavage of the amide bond between rhodamine and the c-terminal glycine of ubiquitin yields an increase in fluorescence signal. The assay was conducted in 20 ul total volume of assay buffer (50 mM Tris-HCl, pH 7.8, 0.5 mM EDTA, 0.01% Bovine Serum Albumin, 1 mM DTT, 0.01% Tween-20), and 0.05 nM USP1/UAF1 enzyme.
Compounds, dissolved in DMSO were tested in dose response format, beginning at 10 uM.
Compounds depicted below were added to enzyme/assay buffer mix and incubated 10 min.
Data for all assay formats was calculated as percent inhibition compared with control wells. […] IC50 values were calculated using the standard four parameter curve fitting algorithm in either Prism GraphPad (La Jolla, Calif.) software, or Collaborative Drug Discovery (Burlingame, Calif.) CDD Vault.

The nature of data set [2]: ADME solubility determination at pH 2.0 and pH 7.4. Type of data set: physicochemical. Particulars: aqueous buffer, thermodynamic from solid, LC-MS/MS. In outline:
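Dried residues of 10 mM DMSO stocks were shaken in PBS pH 7.4 or pH 2.0 for 24 hours at 25° C. and 1,100 rpm. After centrifugation, supernatants were quantified by LC-MS/MS against a standard of known concentration, applying a dilution factor.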

Data set [3] is described as follows: Liver microsomal stability, human liver microsomes. Type of data set: in vitro ADME. The settings on record: 1 μM compound, NADPH, read-out: t1/2 (min) in HLM. An outline of the steps:
(§1)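 Compound (1 μM final) was incubated with prewarmed human or rat liver microsomes (1 mg/mL in 100 mM phosphate master mix) plus NADPH; aliquots at 0.5–30 minutes were quenched in cold acetonitrile and quantified by LC-MS/MS. Half-life came from the ln(% remaining) versus time slope, converted to CLint (μL/min/mg prot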
A general note: Liver microsomes are vesicles of endoplasmic reticulum, rich in cytochrome P450 enzymes.

A short description of data set [4]: Liver microsomal stability, rat liver microsomes. Type of data set: in vitro ADME. Particulars: 1 μM compound, NADPH, read-out: t1/2 (min) in RLM. An outline of the steps: as §1
The mark [5] stands for this setting: PBS pH 2.0, shaken at 25° C. for 24 hours, read-out: Solubility at pH 2.0.
Setting [6] is: PBS pH 7.4, shaken at 25° C. for 24 hours, read-out: Solubility at pH 7.4.

Chain of USP1/UAF1 (O94782 whole entry): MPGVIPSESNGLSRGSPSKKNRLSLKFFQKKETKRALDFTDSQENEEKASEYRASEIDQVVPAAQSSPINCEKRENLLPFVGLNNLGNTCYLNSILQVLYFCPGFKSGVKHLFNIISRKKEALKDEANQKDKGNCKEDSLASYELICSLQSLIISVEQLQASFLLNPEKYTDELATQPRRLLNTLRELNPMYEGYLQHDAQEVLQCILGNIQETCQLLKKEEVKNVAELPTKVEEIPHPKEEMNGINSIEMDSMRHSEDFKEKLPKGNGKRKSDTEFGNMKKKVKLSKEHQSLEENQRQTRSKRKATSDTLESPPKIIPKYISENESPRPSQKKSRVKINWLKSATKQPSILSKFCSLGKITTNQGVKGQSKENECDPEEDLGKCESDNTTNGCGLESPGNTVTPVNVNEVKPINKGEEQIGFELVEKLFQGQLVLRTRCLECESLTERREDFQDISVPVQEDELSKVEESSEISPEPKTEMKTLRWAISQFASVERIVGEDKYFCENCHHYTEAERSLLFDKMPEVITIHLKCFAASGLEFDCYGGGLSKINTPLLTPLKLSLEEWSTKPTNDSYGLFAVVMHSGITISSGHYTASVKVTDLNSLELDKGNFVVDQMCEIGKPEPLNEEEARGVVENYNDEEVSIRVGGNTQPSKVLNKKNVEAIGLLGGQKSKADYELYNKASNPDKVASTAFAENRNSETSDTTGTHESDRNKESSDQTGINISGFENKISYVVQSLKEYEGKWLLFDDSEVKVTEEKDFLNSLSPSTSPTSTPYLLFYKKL
Chain of USP1/UAF1 (Q8TAF3 whole entry partner): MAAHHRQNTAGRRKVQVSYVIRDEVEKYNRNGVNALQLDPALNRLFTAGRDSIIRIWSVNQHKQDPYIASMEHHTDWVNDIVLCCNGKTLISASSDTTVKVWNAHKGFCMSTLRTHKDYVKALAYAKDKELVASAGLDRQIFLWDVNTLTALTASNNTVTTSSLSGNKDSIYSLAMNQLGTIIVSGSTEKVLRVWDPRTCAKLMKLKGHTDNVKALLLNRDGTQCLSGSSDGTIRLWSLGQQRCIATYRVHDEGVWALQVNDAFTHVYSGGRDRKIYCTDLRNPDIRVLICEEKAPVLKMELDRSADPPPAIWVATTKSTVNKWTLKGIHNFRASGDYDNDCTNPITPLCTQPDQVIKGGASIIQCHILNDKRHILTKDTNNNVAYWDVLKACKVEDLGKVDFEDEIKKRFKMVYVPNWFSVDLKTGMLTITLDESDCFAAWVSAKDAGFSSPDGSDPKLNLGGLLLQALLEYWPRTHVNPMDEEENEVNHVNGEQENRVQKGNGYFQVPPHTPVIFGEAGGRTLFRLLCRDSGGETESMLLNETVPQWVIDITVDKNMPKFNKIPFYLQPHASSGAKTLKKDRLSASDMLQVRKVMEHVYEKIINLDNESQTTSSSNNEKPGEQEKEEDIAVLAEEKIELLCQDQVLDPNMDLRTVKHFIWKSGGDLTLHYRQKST

Compound `COc1cnccc1-c1ncc2cnn(Cc3ccc(-c4nc(C(F)(F)F)cn4C)cc3)c2n1` returned an IC50 in data set [1] (Table 2) greater than 200 nM.

`Cc1cccc(S(C)(=O)=O)c1-c1ncc2cnn(Cc3ccc(-c4nc(C(F)(F)F)cn4C)cc3)c2n1`: the concentration for half-maximal inhibition (IC50) in data set [1] (Table 2) lay in the range of 100 to 200 nM.

The compound `COc1nccc(C#N)c1-c1ncc2cnn(Cc3ccc(-c4nc(C(F)(F)F)cn4C)cc3)c2n1` gave an IC50 in data set [1] (Table 2) of 10 to 100 nM. The same measure, in the same setting: in the case of `Cc1nc(-c2ccccc2C(C)C)nc2c1cnn2Cc1ccc(-c2nc(C(F)(F)F)cn2C)cc1` it was less than 10 nM. `[2H]C([2H])([2H])n1cc(C(F)(F)F)nc1-c1ccc(Cn2ncc3cnc(-c4c(OC)ncnc4C4CC4)nc32)cc1` had an IC50 in data set [1] (Table 3) of 10 to 100 nM. In the case of `Cn1cc(C(F)(F)F)nc1-c1ccc(Cn2ncc3cnc(-c4c(C#N)ncnc4C4CC4)nc32)cc1`, in data set [1] (Table 3), the IC50 lay in the range of 10 to 100 nM. On the same count and under the same terms, in the case of `COc1ncnc(C2CC2)c1-c1ncc2cnn(Cc3ccc(-n4nc(C#N)cc4C)cc3)c2n1` it was 10 to 100 nM; in that of `CNc1ncnc(C2CC2)c1-c1ncc2cnn(Cc3ccc(-c4nc(C(F)(F)F)cn4C)cc3)c2n1`, 10 to 100 nM; in that of `COc1ncnc(C)c1-c1ncc2cnn(Cc3ccc(-n4nc(C(F)(F)F)cc4OC)cc3)c2n1`, 100 to 200 nM. Still for that read-out and setting: in the case of `Cn1cc(C(F)(F)F)nc1-c1ccc(Cn2ncc3cnc(-c4c(OC5CCOC5)ncnc4C4CC4)nc32)cc1` (stereo not shown) it was 100 to 200 nM; in that of `CCn1cc(C(F)(F)F)nc1-c1ccc(Cn2ncc3cnc(-c4c(OCc5ccccc5)ncnc4C4CC4)nc32)cc1`, 100 to 200 nM; in that of `COc1ncnc(C2CC2)c1-c1ncc2cnn(Cc3ccc(-c4nc(C(F)F)nn4C)cc3)c2n1`, greater than 200 nM. The same measure, in the same setting: in the case of `Cn1cc(C(F)(F)F)nc1-c1ccc(Cn2ncc3cnc(-c4c(OCc5ccccc5)ncnc4C4CC4)nc32)cc1` it was greater than 200 nM; in that of `COc1ncnc(C2CC2)c1-c1ncc2cnn(Cc3ccc(-c4nc(OC)n(C)n4)cc3)c2n1`, greater than 200 nM; in that of `COc1ncnc(C2CC2)c1-c1ncc2cnn(Cc3ccc(-c4nc(C(F)(F)F)cn4CC(=O)N(C)C)cc3)c2n1`, greater than 200 nM. For the compound `CN(C)c1ncnc(C2CC2)c1-c1ncc2cnn(Cc3ccc(-c4nc(C(F)(F)F)cn4C)cc3)c2n1`, in data set [1] (Table 3), the half-inhibitory concentration (IC50) is greater than 200 nM.

Regarding `COc1ncnc(C2CC2)c1-c1ncc2cnn(Cc3ccc(-c4nc(C(F)F)n(C)n4)cc3)c2n1`, the concentration for half-maximal inhibition (IC50) in data set [1] (Table 3) is greater than 200 nM.

The compound `Cn1cc(C(F)(F)F)nc1-c1ccc(Cn2ncc3cnc(-c4c(C5CC5)ncnc4N4CCCC4)nc32)cc1` had a concentration for half-maximal inhibition (IC50) in data set [1] (Table 3) greater than 200 nM. Same read-out and setting: in the case of `Cc1ncnc(N(C)C)c1-c1ncc2cnn(Cc3ccc(-n4nc(C(F)(F)F)cc4C)cc3)c2n1` it was greater than 200 nM; in that of `Cn1cc(C(F)(F)F)nc1-c1ccc(Cn2ncc3cnc(-c4c(C5CC5)ncnc4N4CCC4)nc32)cc1`, greater than 200 nM. For the compound `COc1ncnc(C2CC2)c1-c1ncc2ccn(Cc3ccc(-c4nc(C(F)(F)F)cn4C(C)C)cc3)c2n1`, the 50% inhibitory concentration (IC50) in data set [1] (Table 4) was less than 10 nM. Still for that read-out and setting: in the case of `COc1ncnc(C)c1-c1ncc2ncn(Cc3ccc(-n4nc(C(F)(F)F)cc4C)cc3)c2n1` it was greater than 200 nM. In turn, `CCn1cc(C(F)(F)F)nc1-c1ccc([C@@H](C)n2ncc3cnc(-c4c(OC)ncnc4C4CCC4)nc32)cc1` (single isomer, unassigned) [drawing 742] came in with an IC50 in data set [1] (Table 3) of 10 to 100 nM.

In data set [1] (Table 3), `COc1ncnc(C2CC2)c1-c1ncc2cnn([C@@H](C)c3ccc(-c4nc(C(F)(F)F)cn4C)cc3)c2n1` (single isomer, unassigned) [drawing 743] displayed a concentration for half-maximal inhibition (IC50) of 10 to 100 nM. Same read-out and setting: in the case of `CCn1cc(C(F)(F)F)nc1-c1ccc([C@@H](C)n2ncc3cnc(-c4c(OC)ncnc4C4CC4)nc32)cc1` (single isomer, unassigned) [drawing 747] it was 10 to 100 nM. Still for that read-out and setting: in the case of `CCn1cc(C(F)(F)F)nc1-c1ccc([C@H](C)n2ncc3cnc(-c4c(OC)ncnc4C4CCC4)nc32)cc1` (single isomer, unassigned) [drawing 748] it was 10 to 100 nM; in that of `CCn1cc(C(F)(F)F)nc1-c1ccc([C@H](C)n2ncc3cnc(-c4c(OC)ncnc4C4CC4)nc32)cc1` (single isomer, unassigned) [drawing 751], 10 to 100 nM.

As for `COc1ncnc(C2CC2)c1-c1ncc2ncn(Cc3ccc(-c4nc(C(F)(F)F)cn4C)cc3)c2n1` [Example 203], the solubility at 24 h in data set [2] (setting [5]) and in data set [2] (setting [6]) was greater than 10 µM throughout. In addition, the half-life at 1 μM in data set [3] and in data set [4] was less than 25 min throughout. Turning to `COc1ncnc(C2CC2)c1-c1ncc2ncn(Cc3ccc(-c4nc(C(F)(F)F)cn4C(C)C)cc3)c2n1` [Example 204], the solubility at 24 h in data set [2] (setting [5]) and in data set [2] (setting [6]) was greater than 10 µM in each case. For the same compound, the half-life at 1 μM was greater than 25 min in data set [3] and less than 25 min in data set [4]. As for `CCc1nc2cnc(-c3c(OC)ncnc3C3CC3)nc2n1Cc1ccc(-c2nc(C(F)(F)F)cn2C(C)C)cc1` [Example 205, 2-(4-cyclopropyl-6-methoxypyrimidin-5-yl)-8-ethyl-9-(4-(1-isopropyl-4-(trifluoromethyl)-1H-imidazol-2-yl)benzyl)-9H-purine], the solubility at 24 h in data set [2] (setting [5]) and in data set [2] (setting [6]) was greater than 10 µM in each case. Also, the half-life at 1 μM in data set [3] and in data set [4] was greater than 25 min each time.

With `COc1ncnc(C2CC2)c1-c1ncc2nc(C)n(Cc3ccc(-c4nc(C(F)(F)F)cn4C)cc3)c2n1` [Example 206], the solubility at 24 h in data set [2] (setting [5]) was greater than 10 µM; in data set [2] (setting [6]), less than 10 µM. Also, the half-life at 1 μM in data set [3] is less than 25 min; in data set [4], greater than 25 min.

In the case of `COCc1nc2cnc(-c3c(OC)ncnc3C3CC3)nc2n1Cc1ccc(-c2nc(C(F)(F)F)cn2C(C)C)cc1` [Example 207], the solubility at 24 h in data set [2] (setting [5]) and in data set [2] (setting [6]) was greater than 10 µM in each case. For the same compound, the half-life at 1 μM in data set [3] is less than 25 min; in data set [4], greater than 25 min. `COc1ncnc(C2CC2)c1-c1ncc2nc(C(C)C)n(Cc3ccc(-c4nc(C(F)(F)F)cn4C(C)C)cc3)c2n1` [Example 208]: the solubility at 24 h in data set [2] (setting [5]) and in data set [2] (setting [6]) was less than 10 µM throughout. Moreover, the half-life at 1 μM in data set [3] and in data set [4] was greater than 25 min in each case. Regarding `CCc1nc2cnc(-c3c(OC)ncnc3C3CC3)nc2n1Cc1ccc(-n2nc(C(F)(F)F)cc2C)cc1` [Example 209, 2-(4-cyclopropyl-6-methoxypyrimidin-5-yl)-8-ethyl-9-(4-(5-methyl-3-(trifluoromethyl)-1H-pyrazol-1-yl)benzyl)-9H-purine], the solubility at 24 h in data set [2] (setting [5]) and in data set [2] (setting [6]) was greater than 10 µM in each case. In addition, the values for the half-life at 1 μM in data set [3] and in data set [4] were less than 25 min and greater than 25 min, respectively. Turning to `COc1ncnc(C2CC2)c1-c1ncc2ncn(Cc3ccc(-n4nc(C(F)(F)F)cc4C)cc3)c2n1` [Example 210], the solubility at 24 h in data set [2] (setting [5]) and in data set [2] (setting [6]) was greater than 10 µM each time. Further, the half-life at 1 μM in data set [3] and in data set [4] was greater than 25 min each time. On to `COc1ncnc(C2CC2)c1-c1ncc2nc(C)n(Cc3ccc(-n4nc(C(F)(F)F)cc4C)cc3)c2n1` [Example 211], for which the solubility at 24 h in data set [2] (setting [5]) and in data set [2] (setting [6]) was greater than 10 µM throughout. Besides, the figures for the half-life at 1 μM in data set [3] and in data set [4] were less than 25 min and greater than 25 min, respectively. `COc1ncnc(C2CC2)c1-c1ncc2nc(C(C)C)n(Cc3ccc(-n4nc(C(F)(F)F)cc4C)cc3)c2n1` [Example 212]: the solubility at 24 h in data set [2] (setting [5]) and in data set [2] (setting [6]) was less than 10 µM each time. Further, the half-life at 1 μM in data set [3] and in data set [4] was greater than 25 min in each case.

Consider `COc1ncnc(C2CC2)c1-c1ncc2nc(C3CC3)n(Cc3ccc(-n4nc(C(F)(F)F)cc4C)cc3)c2n1` [Example 213], for which the solubility at 24 h in data set [2] (setting [5]) and in data set [2] (setting [6]) was less than 10 µM throughout. For the same compound, the half-life at 1 μM in data set [3] and in data set [4] was greater than 25 min in each case. As to `COc1ncnc(C2CC2)c1-c1ncc2nc(C3CCC3)n(Cc3ccc(-n4nc(C(F)(F)F)cc4C)cc3)c2n1` [Example 214], the solubility at 24 h in data set [2] (setting [5]) and in data set [2] (setting [6]) was less than 10 µM throughout. Also, the half-life at 1 μM in data set [3] and in data set [4] was greater than 25 min throughout. Consider `COc1ncnc(C2CC2)c1-c1ncc2nnn(Cc3ccc(-c4nc(C(F)(F)F)cn4C)cc3)c2n1` [Example 215, 5-(4-cyclopropyl-6-methoxypyrimidin-5-yl)-3-(4-(1-methyl-4-(trifluoromethyl)-1H-imidazol-2-yl)benzyl)-3H-[1,2,3]triazolo[4,5-d]pyrimidine], for which the solubility at 24 h in data set [2] (setting [5]) and in data set [2] (setting [6]) was greater than 10 µM throughout. For the same compound, the half-life at 1 μM was greater than 25 min in data set [3] and less than 25 min in data set [4].
